Measured values reported in ChEMBL document CHEMBL1201862, “PubChem BioAssay data set” (2004).
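Interpolation was linear, between the two tested concentrations surrounding the appropriate level; five concentrations were tested over 48 hours in 96-well plates. GI50 marks 50% less growth.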 Calls of active or inactive are those of the source. No stated cut-off is given here; in the data, active = GI50 up to about 1.1 µM and inactive = higher.

Columns and labels:
Test in all cases: inhibition of tumour cell growth, NCI panel, 48 h
HT-29 = tested on: HT-29
OVCAR-8 = tested on: OVCAR-8
SF-268 = tested on: SF-268
HOP-92 = tested on: HOP-92
COLO 205 = tested on: COLO 205
HL-60 = tested on: HL-60
IGROV-1 = tested on: IGROV-1
HCT-15 = tested on: HCT-15
SN12C = tested on: SN12C
TK-10 = tested on: TK-10
UO-31 = tested on: UO-31
SK-MEL-2 = tested on: SK-MEL-2
EKVX = tested on: EKVX
M19-MEL = tested on: M19-MEL
M14 = tested on: M14
UACC-62 = tested on: UACC-62
RXF 393 = tested on: RXF 393
T47D = tested on: T47D
MCF7 = tested on: MCF7
BT-549 = tested on: BT-549

Row | SMILES | GI50 (HT-29) | GI50 (OVCAR-8) | GI50 (SF-268) | GI50 (HOP-92) | GI50 (COLO 205) | GI50 (HL-60) | GI50 (IGROV-1) | GI50 (HCT-15) | GI50 (SN12C) | GI50 (TK-10) | GI50 (UO-31) | GI50 (SK-MEL-2) | GI50 (EKVX) | GI50 (M19-MEL) | GI50 (M14) | GI50 (UACC-62) | GI50 (RXF 393) | GI50 (T47D) | GI50 (MCF7) | GI50 (BT-549)
1 | Cc1cc2c(cc1C)[n+]([O-])c(-c1c(Cl)cccc1Cl)c(N)[n+]2[O-] | 39.6 µM (inactive) | 38.8 µM (inactive) | 32.9 µM (inactive) | > 100 µM (inactive) | 18.7 µM (inactive) | 26 µM (inactive) | 41.3 µM (inactive) | 28.4 µM | 50.9 µM (inactive) | > 100 µM (inactive) | 30.3 µM (inactive) | 31.6 µM (inactive) | 46.3 µM (inactive) | 34.9 µM (inactive) | 33 µM (inactive) | 23.2 µM (inactive) |  |  |  | 
2 | CS/C(=N\C(=S)Nc1ccccc1)Nc1ccccc1 | 6.37 µM (inactive) | 25.4 µM (inactive) | 25.6 µM (inactive) |  | 23.8 µM (inactive) | 10.6 µM (inactive) | 16.4 µM (inactive) | 17.9 µM | 18.3 µM (inactive) | 14.2 µM (inactive) | 11.6 µM (inactive) | 15.5 µM (inactive) | > 10 µM (inactive) | 11 µM (inactive) | 21.4 µM (inactive) | 4.58 µM (inactive) | 15.2 µM (inactive) |  |  | 
3 | COC1OC(C)C(OC(=O)C(C)(C)C)C(C)(O)C1O (configuration not stated) | > 100 µM (inactive) | > 100 µM (inactive) | > 100 µM (inactive) | > 100 µM (inactive) | > 100 µM (inactive) | > 100 µM (inactive) | > 100 µM (inactive) | > 100 µM | > 100 µM (inactive) | > 100 µM (inactive) |  |  |  | > 100 µM (inactive) | > 100 µM (inactive) | > 100 µM (inactive) | > 100 µM (inactive) |  |  | 
4 | C=CCOC(C)n1c(C)cc(=O)n(C(C)OCC=C)c1=O (configuration not stated) | > 100 µM (inactive) | > 100 µM (inactive) | > 100 µM (inactive) | 72.1 µM (inactive) | > 100 µM (inactive) | > 100 µM (inactive) | > 100 µM (inactive) | > 100 µM | > 100 µM (inactive) |  | > 100 µM (inactive) |  | > 100 µM (inactive) | > 100 µM (inactive) | > 100 µM (inactive) | > 100 µM (inactive) | > 100 µM (inactive) |  |  | 
5 | Nc1nc(N)c(N=O)c(Nc2ccc(Br)cc2)n1 | 15.8 µM (inactive) | 27.2 µM (inactive) | 12.9 µM (inactive) | 15.4 µM (inactive) | 19.9 µM (inactive) | > 100 µM (inactive) | 3.46 µM (inactive) | 15.3 µM | 17.8 µM (inactive) | 29.1 µM (inactive) |  | 21.4 µM (inactive) | 40.8 µM (inactive) | 30.5 µM (inactive) | 16.2 µM (inactive) | 5.5 µM (inactive) |  |  |  | 
6 | O=c1oc2ccccc2cc1-c1csc(Nc2cc(Cl)cc(Cl)c2)n1 | 2.85 µM (inactive) | 4.11 µM (inactive) | 12.8 µM (inactive) | > 39 µM (inactive) | 18 µM (inactive) | > 90.8 µM (inactive) | 14 µM (inactive) | > 100 µM | 6.31 µM (inactive) | 20.6 µM (inactive) | 2.77 µM (inactive) | > 100 µM (inactive) | > 55.6 µM (inactive) |  | > 35.5 µM (inactive) | 52.5 µM (inactive) | 5.14 µM (inactive) | 15.5 µM (inactive) | 17.4 µM (inactive) | > 54.8 µM (inactive)
7 | CN(C)CCCN1CCC2(CCC(C(C)(C)C)CC2)CC1 | 0.409 µM (active) | 3.8 µM (inactive) | 2.32 µM (inactive) | 3.18 µM (inactive) | 1.51 µM (inactive) | 0.603 µM (active) | 4.01 µM (inactive) | 2.22 µM | 7.35 µM (inactive) | 1.66 µM (inactive) | 1.56 µM (inactive) | 1.75 µM (inactive) | 5.33 µM (inactive) |  | 1.85 µM (inactive) | 1.88 µM (inactive) | 1.6 µM (inactive) | 1.88 µM (inactive) | 1.65 µM (inactive) | 11.3 µM (inactive)
8 | COC(=O)C(CC(C)=O)CS(=O)(=O)CC(=O)C(=O)Nc1cccc([N+](=O)[O-])c1 (configuration not stated) |  | > 100 µM (inactive) | > 100 µM (inactive) | > 100 µM (inactive) | > 100 µM (inactive) |  | > 100 µM (inactive) | > 100 µM | > 100 µM (inactive) | > 100 µM (inactive) | > 100 µM (inactive) | > 100 µM (inactive) | > 100 µM (inactive) | > 100 µM (inactive) | > 100 µM (inactive) | > 100 µM (inactive) | > 100 µM (inactive) |  |  | 
9 | COc1cc(/C=C\c2ccc(OC(C)=O)cc2)cc(OC)c1OC | 10.8 µM (inactive) | 4.03 µM (inactive) | 9.59 µM (inactive) | 20 µM (inactive) | 13.3 µM (inactive) |  | 7.59 µM (inactive) |  | 4.22 µM (inactive) |  | 4.08 µM (inactive) | 4.26 µM (inactive) | 10 µM (inactive) | 6.4 µM (inactive) | 4.49 µM (inactive) | 4.85 µM (inactive) |  |  |  | 
